Reference: ChEMBL document CHEMBL4118101 (Bioorg Med Chem, 2018)
Converted amounts (≈) assume the structure as drawn. The source made the active and inactive calls. The calls are words filed in the database; no cut-off is given here.

Experiments:
[1] = Hemolytic activity in mouse RBC at 62.5 ug/ml after 1 hr relative to control; format: ADME, cell-based, Erythrocyte; details: mouse red blood cells (erythrocytes), read-out: Activity
[2] = system: Cryptococcus neoformans; assay: Antifungal activity against Cryptococcus neoformans isolate CN2 measured after 48 hrs by CLSI M27-A3 protocol based method; format: functional; details: Cryptococcus neoformans, isolate CN2, 48 h; read-out: MIC
[3] = system: Candida albicans; assay: Antifungal activity against Candida albicans ATCC 10231 measured after 48 hrs by CLSI M27-A3 protocol based method; format: functional; details: ATCC 10231, 48 h
[4] = system: Candida albicans; assay: Antifungal activity against Candida albicans ATCC 64124 measured after 48 hrs by CLSI M27-A3 protocol based method; format: functional; details: Candida albicans, ATCC 64124, 48 h; read-out: MIC
[5] = system: Candida albicans; assay: Antifungal activity against fluconazole/ITC-susceptible Candida albicans ATCC MYA-2876 measured after 48 hrs by CLSI M27-A3 protocol based method; format: functional; details: Candida albicans, ATCC MYA-2876, 48 h
[6] = system: Candida albicans; assay: Antifungal activity against fluconazole/ITC-resistant Candida albicans ATCC 90819 measured after 48 hrs by CLSI M27-A3 protocol based method; format: functional; details: Candida albicans, ATCC 90819, 48 h; read-out: MIC
[7] = system: Candida albicans; assay: Antifungal activity against fluconazole/ITC-susceptible Candida albicans ATCC MYA-2310 measured after 48 hrs by CLSI M27-A3 protocol based method; format: functional; details: Candida albicans, ATCC MYA-2310, 48 h; read-out: MIC
[8] = system: Candida albicans; assay: Antifungal activity against fluconazole/ITC-resistant Candida albicans ATCC MYA-1237 measured after 48 hrs by CLSI M27-A3 protocol based method; format: functional; details: Candida albicans, ATCC MYA-1237, 48 h; read-out: MIC
[9] = system: Candida albicans; assay: Antifungal activity against fluconazole/ITC-resistant Candida albicans ATCC MYA-1003 measured after 48 hrs by CLSI M27-A3 protocol based method; format: functional; details: Candida albicans, ATCC MYA-1003, 48 h; read-out: MIC
[10] = system: Nakaseomyces glabratus; assay: Antifungal activity against Candida glabrata ATCC 2001 measured after 48 hrs by CLSI M27-A3 protocol based method; format: functional, CBS 138; details: Nakaseomyces glabratus, CBS 138, 48 h; read-out: MIC
[11] = system: Pichia kudriavzevii; assay: Antifungal activity against Candida krusei ATCC 6258 measured after 48 hrs by CLSI M27-A3 protocol based method; format: functional; details: Pichia kudriavzevii, ATCC 6258, 48 h
[12] = system: Candida parapsilosis; assay: Antifungal activity against Candida parapsilosis ATCC 22019 measured after 48 hrs by CLSI M27-A3 protocol based method; format: functional; details: Lodderomyces parapsilosis, ATCC 22019, 48 h
[13] = system: Aspergillus nidulans; assay: Antifungal activity against Aspergillus nidulans ATCC 38163 measured after 48 hrs by CLSI M38-A2 protocol based method; format: functional; details: ATCC 38163, 48 h
[14] = system: Aspergillus flavus; assay: Antifungal activity against Aspergillus flavus ATCC MYA-3631 measured after 48 hrs by CLSI M38-A2 protocol based method; format: functional; details: ATCC MYA-3631, 48 h
[15] = system: Aspergillus terreus; assay: Antifungal activity against Aspergillus terreus ATCC MYA-3633 measured after 48 hrs by CLSI M38-A2 protocol based method; format: functional; details: ATCC MYA-3633, 48 h
[16] = system: Nakaseomyces glabratus; assay: Antifungal activity against Candida glabrata isolate CG1 measured after 48 hrs by CLSI M27-A3 protocol based method; format: functional; details: Nakaseomyces glabratus, 48 h; read-out: MIC
[17] = system: Nakaseomyces glabratus; assay: Antifungal activity against Candida glabrata isolate CG2 measured after 48 hrs by CLSI M27-A3 protocol based method; format: functional; details: Nakaseomyces glabratus, isolate CG2, 48 h; read-out: MIC
[18] = system: Nakaseomyces glabratus; assay: Antifungal activity against Candida glabrata isolate CG3 measured after 48 hrs by CLSI M27-A3 protocol based method; format: functional; details: Nakaseomyces glabratus, 48 h; read-out: MIC
[19] = system: Candida parapsilosis; assay: Antifungal activity against Candida parapsilosis isolate CP1 measured after 48 hrs by CLSI M27-A3 protocol based method; format: functional; details: Lodderomyces parapsilosis, isolate CP1, 48 h
[20] = system: Candida parapsilosis; assay: Antifungal activity against Candida parapsilosis isolate CP2 measured after 48 hrs by CLSI M27-A3 protocol based method; format: functional; details: Lodderomyces parapsilosis, isolate CP2, 48 h
[21] = system: Cryptococcus neoformans; assay: Antifungal activity against Cryptococcus neoformans isolate CN1 measured after 48 hrs by CLSI M27-A3 protocol based method; format: functional; details: isolate CN1, 48 h
[22] = system: Cryptococcus neoformans; assay: Antifungal activity against Cryptococcus neoformans isolate CN3 measured after 48 hrs by CLSI M27-A3 protocol based method; format: functional; details: Cryptococcus neoformans, isolate CN3, 48 h; read-out: MIC
[23] = system: Candida parapsilosis; assay: Antifungal activity against Candida parapsilosis isolate CP3 measured after 48 hrs by CLSI M27-A3 protocol based method; format: functional; details: Lodderomyces parapsilosis, isolate CP3, 48 h
[24] = Hemolytic activity in mouse RBC at 0.48 ug/ml after 1 hr relative to control; format: ADME, cell-based, Erythrocyte; details: mouse red blood cells (erythrocytes), read-out: Activity
[25] = Hemolytic activity in mouse RBC at […] ug/ml after 1 hr relative to control; format: ADME, cell-based, Erythrocyte; details: mouse red blood cells (erythrocytes), read-out: Activity
[26] = Hemolytic activity in mouse RBC at 1.95 ug/ml after 1 hr relative to control; format: ADME, cell-based, Erythrocyte; details: mouse red blood cells (erythrocytes), at 1.95 µg/mL, read-out: Activity
[27] = Hemolytic activity in mouse RBC at 3.9 ug/ml after 1 hr relative to control; format: ADME, cell-based, Erythrocyte; details: mouse red blood cells (erythrocytes), read-out: Activity
[28] = Hemolytic activity in mouse RBC at 7.8 ug/ml after 1 hr relative to control; format: ADME, cell-based, Erythrocyte; details: mouse red blood cells (erythrocytes), read-out: Activity
[29] = Hemolytic activity in mouse RBC at 31.3 ug/ml after 1 hr relative to control; format: ADME, cell-based, Erythrocyte; details: mouse red blood cells (erythrocytes), at 31.3 µg/mL, read-out: Activity
[30] = system: HEK293; assay: Cytotoxicity against HEK293 cells at 7.8 ug/ml after 24 hrs by resazurin based assay; format: cell-based; details: human, hek293, 24 h
[31] = system: BEAS-2B; assay: Cytotoxicity against human BEAS2B cells up to 7.8 ug/ml after 24 hrs by resazurin based assay; format: cell-based
[32] = system: A549; assay: Cytotoxicity against human A549 cells up to 7.8 ug/ml after 24 hrs by resazurin based assay; format: cell-based; details: a549, 24 h
[33] = system: Candida albicans; assay: Induction of membrane permeabilization in Candida albicans ATCC 10231 assessed as membrane disruption at 4 times MIC after 1 hr by propidium iodide staining based fluorescence microscopy; format: functional, organism-based

Compound | MIC [2] [µM] | MIC [3] [µM] | MIC [4] [µM] | MIC [5] [µM] | MIC [6] [µM] | MIC [7] [µM] | MIC [8] [µM] | MIC [9] [µM] | MIC [10] [µM] | MIC [11] [µM] | MIC [12] [µM] | MIC [13] [µM] | MIC [14] [µM] | MIC [15] [µM] | MIC [16] [µM] | MIC [17] [µM] | MIC [18] [µM] | MIC [19] [µM] | MIC [20] [µM] | MIC [21] [µM] | also measured
CCCCCCCCCCCCCCCCNCC(O)(Cn1cncn1)c1ccc(F)cc1F (stereo unspecified) | 1 (≈ 0.479 µg/mL) | > 65.4 | > 65.4 | 65.4 (≈ 31.3 µg/mL) | 65.4 (≈ 31.3 µg/mL) | 8.1 to 65.4 (≈ 3.88 to 31.3 µg/mL) | > 65.4 | > 65.4 | 2 to 65.4 (≈ 0.957 to 31.3 µg/mL) | 8.1 (≈ 3.88 µg/mL) | 1 (≈ 0.479 µg/mL) | 8.1 (≈ 3.88 µg/mL) | > 65.4 | > 65.4 | 4.1 (≈ 1.96 µg/mL) | 2 (≈ 0.957 µg/mL) | 16.3 (≈ 7.8 µg/mL) | 2 (≈ 0.957 µg/mL) | 1 (≈ 0.479 µg/mL) | 1 (≈ 0.479 µg/mL) | hemolysis at 1 h, 62.5 ug/ml [1]: 8%; MIC [22]: 1 µM (≈ 0.479 µg/mL); MIC [23]: 2 µM (≈ 0.957 µg/mL); hemolysis at 1 h, 0.48 ug/ml [24]: 4%; hemolysis at 1 h, 0.975 ug/ml [25]: 5%; hemolysis at 1 h, 15.6 ug/ml [25]: 4%; hemolysis at 1 h, 1.95 ug/ml [26]: 6%; hemolysis at 1 h, 3.9 ug/ml [27]: 3%; hemolysis at 1 h, 7.8 ug/ml [28]: 4%; hemolysis at 1 h, 31.3 ug/ml [29]: 4%; Activity [30]: Non-Toxic; Activity [31]: Non-Toxic; Activity [32]: Non-Toxic
CCCCCCNCC(O)(Cn1cncn1)c1ccc(F)cc1F (stereo unspecified) | > 92.3 | 23 (≈ 7.78 µg/mL) | > 92.3 | 46.1 (≈ 15.6 µg/mL) | 92.3 (≈ 31.2 µg/mL) | 92.3 (≈ 31.2 µg/mL) | > 92.3 | 92.3 (≈ 31.2 µg/mL) | 23 to 46.1 (≈ 7.78 to 15.6 µg/mL) | 23 (≈ 7.78 µg/mL) | 2.9 (≈ 0.981 µg/mL) | > 92.3 | > 92.3 | > 92.3 | 92.3 (≈ 31.2 µg/mL) | 23 (≈ 7.78 µg/mL) | 92.3 (≈ 31.2 µg/mL) | 2.9 (≈ 0.981 µg/mL) | 2.9 (≈ 0.981 µg/mL) | 23 (≈ 7.78 µg/mL) | MIC [22]: 92.3 µM (≈ 31.2 µg/mL); MIC [23]: 2.9 µM (≈ 0.981 µg/mL); Activity [33]: inactive
